| Structure (SMILES) | melting point [°C] |
| --- | --- |
| COc1ccc(CC(=O)Nc2cc(Cl)ccc2O)cc1OC1CCCC1 | 151 to 152 |
| O=c1cc(-c2ccccc2)oc2c(CN3CCN(CCO)CC3)c(O)c(O)c(O)c12 | 192 |
| CCCCOCCOc1ccc(-c2ccc3c(c2)C=C(C(=O)Nc2ccc(SCc4nncn4CC(C)C)cc2)CCN3CCC)cc1 | 130 to 132 |
| O=C(c1nc2ccccc2s1)C1CCN(CCc2ccc(F)cc2)CC1 | 97 to 98 |
| CCC1(O)CC(OC2CC(N(C)C)C(OC3CC(O)C(O)C(C)O3)C(C)O2)c2c(cc3c(c2O)C(=O)c2c(O)ccc(O)c2C3=O)C1C(=O)OC (stereo unspecified) | 162 to 163 |
| CCNC(=O)n1nc(Oc2c(F)cc(C(F)(F)F)cc2F)cc1C | 102 to 104 |
| Cc1ccc(S(=O)(=O)OC(C)(c2ccccc2)C(F)(F)F)cc1 (stereo unspecified) | 102 |
| CSc1ccc(-c2nn(CC3CC3)c(=S)cc2-c2ccc(Cl)cc2)cc1 | 135 |
| Nc1ccc(-c2cccs2)c(C(=O)Nc2ccc3c(c2)CCC3)c1 | 62 to 67 |
| Oc1c(Cl)cc(Cl)cc1CNc1cnsn1 | 131 to 132 |
| CN(Cc1ccc(Cl)c(Cl)c1)C(=O)C1=C(O)C(=O)N(CCC(=O)O)C1 | 183 to 184 |
| CN(C)CCCn1c2c(c3ccccc31)CCS(=O)(=O)CCC2 | 119 to 120 |
| CCC(Sc1ccc(CCC(=O)O)c(C)c1)c1ccc2nc(-c3ccc(C(F)(F)F)cc3)sc2c1 (stereo unspecified) | 105 to 108 |
| COC(=O)c1csc(-c2ccc(F)cc2)n1 | 103 to 105 |
| COCC1=Nc2ccccc2C(=O)C1 | 184 to 185 |
| Cn1c(-c2ccc(F)cc2)c(OCCOc2ccc(C=C3SC(=O)NC3=O)cc2)c(=O)c2ccccc21 | 225 to 228 |
| COc1ccccc1N1CCN(CCCNC(=O)c2cccc3c(=O)c(C)c(CCc4ccccc4)oc23)CC1 | 142 to 146 |
| CCOC(=O)c1nc2cc(Br)ccn2n1 | 158 to 160 |
| COC(=O)CCCc1cc2nc(Cl)ccc2n1S(=O)(=O)c1cccc2cccnc12 | 64 |
| CC1C(C(=O)O)CC2CC1C2(C)C (single isomer, unassigned; (+)) | 128 |
| Cc1c(-c2ccncc2)[nH]c2ccc(C3=NNC(=O)CC3C)cc12 (stereo unspecified) | 233 to 235 |
| N#CCCNC(=O)c1cccc(-c2cc3c(ccn3Cc3ccc(Cl)cc3Cl)cn2)c1 | 199 to 200 |
| O=c1c2c(Cc3ccc(C(F)(F)F)cc3)n[nH]c2c2cccnc2n1-c1cccc(C(F)(F)F)c1 | 145 to 148 |
| CS(=O)(=O)N(CCCl)N(S(C)(=O)=O)S(C)(=O)=O | 154 to 155 |
| COc1ccc(C2=NN(c3ccc(O)cc3)C(=O)[C@@H]3CC=CC[C@H]23)cc1OC | 111 to 112 |
| CCOc1ccc(C2(C(=O)O)CC2(C)C)cc1 (stereo unspecified) | 104 to 105 |

| Structure (SMILES) | melting point [°C] |
| --- | --- |
| O=C1C2C[C@H](O)CN2C(=O)N1c1ccc([N+](=O)[O-])c2ccccc12 (stereo partly specified) | 246 to 248 |
| CCC(c1ccc2[nH]c(C(F)(F)F)nc2c1)n1ccnc1 (stereo unspecified) | 173 |
| C#CCOc1cc(-c2ncc(C(F)(F)F)cc2Cl)c(F)cc1Cl | 97 to 98 |
| CC(=O)Nc1cccc(C2CCNCC2)c1 | 102 to 104 |
| O=C(O)C(=NO)c1cccs1 | 132 |
| COc1ccc(-c2ccncc2OC2SCC(O)C(O)C2O)cc1 (stereo unspecified) | 228 |
| CCOC(=O)C1=C(COCCNc2nc(C(=O)NC)cs2)NC(C)=C(C(=O)OC)C1c1ccccc1Cl (stereo unspecified) | 120 |
| O=C(Cc1ccccc1)c1ccc(SC(F)F)cc1 | 42 to 45 |
| C#Cc1ccc(=O)oc1 | 99 to 100 |
| Nc1cc(C(F)(F)F)nc(C(=O)O)c1Cl | 131 to 133 |
| CN(C)C=Cc1[nH]c(=O)ccc1C(=O)c1ccco1 | 238 to 240 |
| O=C(O)C1(C(=O)Nc2cc(Cl)cc(Cl)c2)CCC1 | 159 to 160 |
| CCCCCCCCCCCCC#CCC(COC(C)=O)(COC(C)=O)NC(C)=O | 95.5 to 96.5 |
| CCOC(=O)c1c(O)c2ccc(Cl)cc2c(=O)n1C | 109 to 110 |
| CCCCOc1nc(N)c2[nH]c(=O)n(CCCNc3cccc(CC(=O)O)c3)c2n1 | 247 |
| Cc1cc(-c2cc(C(F)(F)F)nn2-c2ccc(S(N)(=O)=O)c(Cl)c2)ccc1-c1cscn1 | 113 to 115 |
| COC(=O)c1nccnc1Cl | 30 |
| CN(C)C(=O)c1c([N+](=O)[O-])cccc1S(=O)(=O)N(C)CCO | 107 |
| CN1CC(C(=O)c2c[nH]cc2Cc2ccc(F)cc2)=C(O)C1=O | 265 to 267 |
| Cc1ccc(CCc2cc3c(s2)-n2c(C)nnc2CN=C3c2ccccc2Cl)cc1 | 160 to 162 |
| Cc1cc2cc(O)ccc2[nH]1 | 124 to 126 |
| C#CCOc1cc(-c2ncnc(C(Cl)Cl)c2Cl)c(F)cc1Cl | 86 to 88 |
| c1cc(-c2ccoc2)cc(-n2cnc3cc(-c4ccoc4)ccc32)c1 | 149 to 150 |
| CN(c1ncc(Br)cn1)[C@H]1CC[C@H](C#CCO)CC1 | 156 to 157 |
| CCCCCc1ccc(C(=O)Cc2cccc(C(=O)O)c2)cc1 | 109 to 111 |
| CCOC(=O)c1cc2c(O)nncc2nc1Nc1ccccc1 | 257 to 260 |

| Structure (SMILES) | melting point [°C] |
| --- | --- |
| CC(=O)N1CCN(C(=O)OC2C3=C(SCCS3)C(=O)N2c2ccc3ccc(Cl)nc3n2)CC1 (stereo unspecified) | 271 |
| COc1ccc(OC(=O)C2CCCc3ccc([N+](=O)[O-])cc32)cc1 (stereo unspecified) | 109 to 110 |
| COc1cc(-n2cnc(C)c2C)cc2oc(=O)c(C)c(C)c12 | 196 to 198 |
| CCc1cc(C)cc(CC)c1CO | 71 to 72 |
| CCOC(=O)CN(c1c([N+](=O)[O-])cc([N+](=O)[O-])c2ccccc12)S(=O)(=O)c1ccc(C)cc1 | 106 to 107 |
| CCCC[C@@H](NC(=O)[C@H](Cc1ccc(O)cc1)NC(=O)OC(C)(C)C)C(=O)NCC(=O)Oc1c(Cl)c(Cl)c(Cl)c(Cl)c1Cl | 175 to 177 |
| COc1ccc(C(=O)c2ccc(-n3ccnc3)cc2)cc1OC | 149 to 151 |
| CCOC(=O)c1nc2c(=O)[nH]c3cc(C(F)(F)F)ccc3n2c1Cn1ccnc1C | > 250 |
| CCc1cn(C(CC)C(=O)N(C)C)nc1-c1ccccc1 (stereo unspecified) | 77.5 to 79 |
| CSc1ncc(N(C)C(=O)C(C)(C)c2cc(C(F)(F)F)cc(C(F)(F)F)c2)c(-c2ccccc2C)n1 | 124 to 125 |
| CC(=O)OC1(N=NC2(OC(C)=O)CCCCC2)CCCCC1 | 91 to 94 |
| Cc1cccc(C(=O)NCN2CCN(c3cccc(C#N)c3)CC2)c1 | 59 to 61 |
| CCS(=O)CC(O)(C(=O)Nc1ccc(C#N)c(C(F)(F)F)c1)C(F)(F)F (stereo unspecified) | 141 to 143 |
| O=c1c2cc(Cl)ccc2ccc2ncccc12 | 140 to 142 |
| CCCCc1nn(-c2ccccc2Cl)c(=O)n1Cc1ccc(-c2ccccc2S(=O)(=O)NC(=O)c2ccc(F)cc2)cc1 | 118 to 120 |
| Cn1c(S)nc(-c2ccccc2)c1-c1ccccc1 | 179 to 182 |
| CC(=O)OCC1CC(n2c(=S)[nH]c3cc(Cl)c(Cl)cc32)C(OC(C)=O)C1OC(C)=O (stereo unspecified) | 208 to 209 |
| Cc1cc2c(cc1Cl)N(C(=O)CN1CCN(c3ncccn3)CC1)c1ccccc1N(C)S2(=O)=O | 180 to 182 |
| CCOCc1cc2cc(Cl)ccc2oc1=O | 100 to 101 |
| COc1ccc(OC)c(Cc2c(C)c3c(N)nc(N)nc3[nH]c2=O)c1 | 325 to 326 |
| O=C(O)Cn1cc(Cc2nc3c(F)c(F)cc(F)c3s2)c2cc(Oc3ccccc3)ccc21 | 128 to 130 |
| COc1ccc2c(c1)C(=O)c1c-2c(O)nc2ccccc12 | 294 to 296 |
| NC(=O)COCC(Cc1ccccc1)NC(=O)[C@@H]1CCCN1C(=O)OCc1ccccc1 (stereo partly specified) | 137 to 142 |
| FCc1cccc(-c2ccc(-c3cn([C@H]4CN5CCC4CC5)nn3)s2)c1 | 144 |
| COc1cc2cc(C3=CCN(C)CC3)oc2cc1OC | 73 to 75 |
| O=c1oc(=O)n(CC2CC2)c2ccccc12 | 118 to 121 |

| Structure (SMILES) | melting point [°C] |
| --- | --- |
| Oc1ncc(-c2cccc(Cl)c2)cn1 | 235 to 236 |
| CC(=O)N[C@@H](CC(C)C)C(=O)N[C@@H](C(C)C)[C@@H](O)c1c(-c2ccccc2)c1=O | 94 to 105 |
| CC(C)C(=O)CC(=O)c1ccc(C(=O)CC(=O)C(C)C)cc1 | 97 to 97.5 |
| CC(C)c1ccc2nc3ccc(C(=O)OCCCc4cccnc4)cc3c(=O)n2c1 | 111 to 112 |
| COc1cc2c(c(Cl)c1Cl)S(=O)(=O)C(c1ccccc1F)=C2 | 267 to 268 |
| CCOc1cc2c(cc1OCC)C(c1cccc(N)c1)=NN=C(C)C2 | 133 to 134 |
| CC(=O)OCC1CC(n2c(I)nc3cc(Cl)c(Cl)cc32)C(OC(C)=O)C1OC(C)=O (stereo unspecified) | 152 to 153 |
| CNc1ncn(C)c1C(=O)NCc1ccccc1 | 110 to 111 |
| CCCCNC(=O)OC1c2cccnc2C(=O)N1c1ccc2ccc(Cl)nc2n1 (stereo unspecified) | 215 |
| CN1N=C2c3ccccc3CCC2C1c1ccncc1 (stereo unspecified) | 195 to 198 |
| FC(F)(F)Oc1ccc2[nH]c(-c3ccco3)nc2c1 | 165 to 167 |
| O=c1[nH]c(S)ncc1OC1CCCCO1 (stereo unspecified) | > 300 |
| O=CNNc1cccc([N+](=O)[O-])c1 | 168 to 169 |
| Nc1ccc(SCc2nc(Cl)ccc2Cl)cc1 | 110 to 111 |
| O=C1Nc2cnc(N3CCN(c4ccccn4)CC3)nc2S/C1=C/c1ccc([N+](=O)[O-])cc1 | 332 to 334 |
| O=c1c2c(O)cc(OCC3CS3)cc2oc2ccc3ccccc3c12 (stereo unspecified) | 167 to 168 |
| Cc1nc(N2CCN(Cc3ccccc3)CC2)ncc1C(=O)O | 192 |
| CC(C)(C)S(=O)c1cccc(F)c1C(=O)NCCCl (stereo unspecified) | 80 to 90 |
| CC(=O)Oc1cc(O)c(C=O)c(OC(C)=O)c1 | 103 to 105 |
| N#Cc1ccc(-c2ccc(S(=O)(=O)CC(CSc3ccccc3)C(=O)O)cc2)cc1 (stereo unspecified) | 243 to 247 |
| CC(C)COc1ccccc1-c1ncc(C#N)c(=O)[nH]1 | 186 to 187 |
| N#Cc1cc([N+](=O)[O-])ccc1-c1ccccc1 | 111 to 115 |
| Clc1cncnc1NCc1ccc(OCc2ccccc2)cc1 | 95 to 100 |
